The source of these data is US20230348369A1 (Cytokinetics, Inc., priority 2020, published 2023).

The target in this experiment is human NAMPT (Homo sapiens, UniProt P43490). Put plainly: Human recombinant enzyme assay (NMN fluorescence biochemical assay, activation of NAMPT). On the procedure: Compounds described herein were assayed for their ability to stimulate the synthesis of nicotinamide mononucleotide (NMN) by the enzyme NAMPT. The human recombinant enzyme assay measures the activation of the enzyme activity by compounds using recombinant enzyme and substrates in a buffered cell-free system. The assay conditions closely mimic cellular environments. Dose responses were measured using an assay to detect the formation of nicotinamide mono-nucleotide. All experiments were performed in the 384-well format. […] Enzyme reactions were initiated with the addition of 10 μL of a solution containing the substrates. The final assay conditions were as follows: 6 nM human NAMPT, 2.5 mM ATP, 20 μM PRPP and 150 μM nicotinamide in 50 mM HEPES, pH 7.2, 1 mM DTT, 1 mM CHAPS 50 mM NaCl, 100 mM MgCl2. Following an incubation of 60 min at ambient temperature, 10 μL of 20% acetophenone in DMSO was added, followed by 10 μL of 2 M KOH and 40 μL of formic acid. The plates were read for fluorescence (Excitation/Emission=355 nm/460 nm) using an EnVision plate reader after 40 mins of incubation at ambient temperature.

The mark [1] stands for this setting: Table A, human recombinant NAMPT, NMN formation, 60 min, read-out: EC50 Human.
The mark [2] stands for this setting: Table A, human recombinant NAMPT, NMN formation, 60 min.

As a reminder, the EC50 is the concentration giving half of the maximal effect.

Like-named read-outs stand apart in the source and are kept apart here.

human NAMPT, sequence (P43490 whole entry): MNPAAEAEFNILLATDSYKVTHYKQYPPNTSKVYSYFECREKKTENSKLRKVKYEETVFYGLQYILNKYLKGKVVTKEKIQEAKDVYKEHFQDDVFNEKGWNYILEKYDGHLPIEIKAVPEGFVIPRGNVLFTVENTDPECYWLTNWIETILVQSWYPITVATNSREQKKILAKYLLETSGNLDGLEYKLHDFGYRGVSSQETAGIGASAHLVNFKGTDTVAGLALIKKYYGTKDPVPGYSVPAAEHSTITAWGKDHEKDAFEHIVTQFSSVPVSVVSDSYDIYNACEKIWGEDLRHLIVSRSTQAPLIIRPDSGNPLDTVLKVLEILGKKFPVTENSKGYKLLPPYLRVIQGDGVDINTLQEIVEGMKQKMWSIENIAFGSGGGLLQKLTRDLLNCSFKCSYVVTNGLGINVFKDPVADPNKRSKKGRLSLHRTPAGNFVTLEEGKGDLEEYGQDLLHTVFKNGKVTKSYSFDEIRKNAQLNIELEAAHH

Regarding `CC(C)(C)OC(=O)NC1CC2(CC(NC(=O)NCc3ccc(Cl)cc3)C2)C1` (racemic) [Compound 8], under setting [1], the EC50 turned out to be 5.1 µM.

In the case of `CC(C)(O)CN1CCN(C(=O)[C@H]2C[C@]3(C[C@H](NC(=O)NCc4ccc(Cl)cc4)C3)C2)CC1` (single isomer, unassigned) [Compound 182], the half-maximal effective concentration (EC50) turned out to be 20.5 µM.

As for `COC(=O)[C@H]1C[C@@]2(C[C@H](NC(=O)NCc3ccc(Cl)cc3)C2)C1` (single isomer, unassigned) [Compound 201, methyl 6-(3-(4-chlorobenzyl)ureido)spiro[3.3]heptane-2-carboxylate], the EC50 is 22.2 µM. For the same compound, the “AC1.4 Human” value under setting [2] turned out to be 6.7 µM.

As to `COc1ccc(CNC(=O)NC2CC3(C2)CC(C(=O)NC2CCCc4ccc(F)cc42)C3)cc1` (stereo in doubt) [Compound 97, (S)-N-(7-fluoro-1,2,3,4-tetrahydronaphthalen-1-yl)-6-(3-(4-methoxybenzyl)ureido)spiro[3.3]heptane-2-carboxamide], the “AC1.4 Human” value under setting [2] amounted to 1.3 µM. In addition, the half-maximal effective concentration (EC50) under setting [1] is 2.7 µM.

With `COc1ccc(CNC(=O)NC2CC3(C2)CC(C(=O)NC2CCCc4cc(F)ccc42)C3)cc1` (stereo in doubt) [Compound 98, (S)-N-(6-fluoro-1,2,3,4-tetrahydronaphthalen-1-yl)-6-(3-(4-methoxybenzyl)ureido)spiro[3.3]heptane-2-carboxamide], the “AC1.4 Human” value under setting [2] amounted to 3.0 µM. The EC50 under setting [1] was found to be 7 µM.

With `COc1ccc(CNC(=O)NC2CC3(C2)CC(C(=O)NC2CCCc4ccc(F)cc42)C3)cc1` (stereo in doubt) [Compound 99, (R)-N-(7-fluoro-1,2,3,4-tetrahydronaphthalen-1-yl)-6-(3-(4-methoxybenzyl)ureido)spiro[3.3]heptane-2-carboxamide], under setting [2], the “AC1.4 Human” value was 5.1 µM. Besides, the EC50 under setting [1] amounted to 3.9 µM.

`COc1ccc(CNC(=O)NC2CC3(C2)CC(C(=O)NC2CCCc4ccccc42)C3)cc1` (stereo in doubt) [Compound 100, (R)-6-(3-(4-methoxybenzyl)ureido)-N-(1,2,3,4-tetrahydronaphthalen-1-yl)spiro[3.3]heptane-2-carboxamide]: the “AC1.4 Human” value under setting [2] worked out at 8.5 µM. The EC50 under setting [1] turned out to be 10.3 µM.

For the compound `O=C(NCCCCC1CCN(C(=O)c2ccccc2)CC1)NCc1ccncc1` [Compound 1, 1-(4-(1-benzoylpiperidin-4-yl)butyl)-3-(pyridin-4-ylmethyl)urea], the “AC1.4 Human” value under setting [2] came out at 0.1 µM. Further, the half-maximal effective concentration (EC50) under setting [1] was found to be 0.8 µM.

On to `CC(C)(C)OC(=O)NC1CC2(CC(NC(=O)NCc3ccc(C(N)=O)cc3)C2)C1` (centres unmarked) [Compound 2, tert-butyl (6-(3-(4-carbamoylbenzyl)ureido)spiro[3.3]heptan-2-yl)carbamate], for which the concentration giving a half-maximal response (EC50) under setting [1] worked out at 25.9 µM.

`CC1(C)CCC(NC(=O)NCc2ccc(C(N)=O)cc2)CC1` [Compound 3, 4-((3-(4,4-dimethylcyclohexyl)ureido)methyl)benzamide]: the “AC1.4 Human” value under setting [2] was determined as 17.5 µM. Besides, the EC50 under setting [1] stood at 41.4 µM.

With `NC(=O)c1ccc(CNC(=O)NC2CC(c3ccccc3)C2)cc1` (centres unmarked) [Compound 4, 4-((3-(3-phenylcyclobutyl)ureido)methyl)benzamide], the “AC1.4 Human” value under setting [2] worked out at 9.9 µM.

Turning to `CC(C)(C)OC(=O)N1CCC(NC(=O)NCc2ccc(C(N)=O)cc2)CC1` [Compound 5, tert-butyl 4-(3-(4-carbamoylbenzyl)ureido)piperidine-1-carboxylate], the concentration for a half-maximal effect (EC50) under setting [1] is 48.6 µM.

Turning to `CC(C)(C)OC(=O)NC1CC2(CC(NC(=O)NCc3ccncc3)C2)C1` (centres unmarked) [Compound 6, tert-butyl (6-(3-(pyridin-4-ylmethyl)ureido)spiro[3.3]heptan-2-yl)carbamate], under setting [2], the “AC1.4 Human” value stood at 4.5 µM. Besides, the 50% effective concentration (EC50) under setting [1] came out at 26.8 µM.

Take `CC(C)(C)OC(=O)NC1CC2(CC(NC(=O)NCc3ccc(CO)cc3)C2)C1` (centres unmarked) [Compound 9, tert-butyl (6-(3-(4-(hydroxymethyl)benzyl)ureido)spiro[3.3]heptan-2-yl)carbamate]: the “AC1.4 Human” value under setting [2] is 3.4 µM. In addition, the 50% effective concentration (EC50) under setting [1] was 47 µM.
